# Laboratory results as given in ChEMBL document CHEMBL5365529, “Construction and Evaluation of Novel Dual-function Antifungal Inhibitors and Covalent Organic Framework Carriers Based on the Infection Microenvironment” (J Med Chem, 2023).
# Calls of active or inactive are those of the source. No cut-off for these calls is given here.
# Tests used:
# [1] = tested on: Candida albicans; assay: Induction of morphological changes in Candida albicans SC5314 assessed as change in cell structure measured after 48 hrs by TEM analysis; format: functional, organism-based
# [2] = tested on: Candida albicans; assay: Antifungal activity against Candida albicans 901 infected in BALB/c mouse assessed as inhibition of fungal proliferation at 0.5 ug/g administered 6 times measured after 4 days by Masson staining based analysis; format: functional, organism-based; conditions: dose 0.5 µg/g, time 4.0 day
# [3] = tested on: Candida albicans; assay: Antifungal activity against Candida albicans 901 infected in BALB/c mouse assessed as decrease in collagen fiber content at 0.5 ug/g administered 6 times measured after 4 days by Masson staining based analysis; format: functional, organism-based; conditions: dose 0.5 µg/g, time 4.0 day
# [4] = Toxicity in BALB/c mouse infected with Candida albicans 901 assessed as plasma BUN level at 0.5 ug/g administered 6 times measured after 4 days (reference value: 20.4 +/- 1.5 mmol/L); conditions: in vivo, 96 h, dose 0.5 µg/g, time 4 day
# [5] = tested on: Mus musculus; assay: Antiinflammatory activity in BALB/c mouse infected with Candida albicans 901 assessed as decrease in IL-2 level at 0.5 ug/g administered 6 times measured after 4 days by IHC analysis; format: functional, organism-based; conditions: dose 0.5 µg/g, time 4.0 day
# [6] = Toxicity in BALB/c mouse infected with Candida albicans 901 assessed as pathological change in heart at 0.5 ug/g administered 6 times measured after 4 days by H and E staining based analysis; format: tissue-based; conditions: in vivo, 96 h, dose 0.5 µg/g, time 4 day
# [7] = tested on: Candida albicans; assay: Antifungal activity against Candida albicans 901 infected in BALB/c mouse assessed as inhibition of fungal proliferation at 0.5 ug/g administered 6 times measured after 4 days by GMS staining based analysis; format: functional, organism-based; conditions: dose 0.5 µg/g, time 4.0 day
# [8] = tested on: Candida albicans; assay: Induction of morphological changes in Candida albicans SC5314 assessed as leakage of cell contents measured for 96 to 144 hrs by TEM analysis; format: functional, organism-based; conditions: time 96-144 hrs
# [9] = tested on: Candida albicans; assay: Induction of apoptosis in Candida albicans SC5314 assessed as apoptotic cells incubated for 48 hrs by annexin V-FITC/PI staining based flow cytometry (reference value: 2.12 %); format: functional
# [10] = tested on: Candida albicans; assay: Induction of mitochondrial membrane depolarization in Candida albicans SC5314 by JC-1 staining based flow cytometry (reference value: 12.51 %); format: functional
# [11] = Toxicity in BALB/c mouse infected with Candida albicans 901 assessed as plasma ALT level at 0.5 ug/g administered 6 times measured after 4 days (reference value: 30.4 +/- 4.6 IU/L); conditions: in vivo, 96 h, dose 0.5 µg/g, time 4 day
# [12] = tested on: Candida albicans; assay: Antifungal activity against FLC-resistant Candida albicans 632 assessed as fungal growth inhibition incubated for 72 hrs by CLSI based susceptibility test; format: functional
# [13] = tested on: Candida albicans; assay: Antifungal activity against Candida albicans 901 infected in BALB/c mouse assessed as disappearance of nuclear aggregation in lesion at 0.5 ug/g administered 6 times measured after 4 days by H and E staining based analysis; format: functional, organism-based; conditions: dose 0.5 µg/g, time 4.0 day
# [14] = tested on: Mus musculus; assay: Antiinflammatory activity in BALB/c mouse infected with Candida albicans 901 assessed as decrease in COX-2 level at 0.5 ug/g administered 6 times measured after 4 days by IHC analysis; format: functional, organism-based; conditions: dose 0.5 µg/g, time 4.0 day
# [15] = tested on: Candida albicans; assay: Induction of morphological changes in Candida albicans SC5314 assessed as decrease in cell membrane thickness measured after 48 hrs by TEM analysis; format: functional, organism-based
# [16] = tested on: Candida albicans; assay: Induction of immunity in BALB/c mouse infected with Candida albicans 901 assessed as increase in CD8 positive level at 0.5 ug/g administered 6 times measured after 4 days by IHC analysis; format: functional, organism-based; conditions: dose 0.5 µg/g, time 4.0 day
# [17] = tested on: Candida albicans; assay: Induction of morphological changes in Candida albicans SC5314 assessed as decrease in cell wall thickness measured after 48 hrs by TEM analysis; format: functional, organism-based
# [18] = biological target: T1, Lanosterol 14-alpha demethylase (Candida albicans (strain SC5314 / ATCC MYA-2876) (Yeast), UniProt P10613); assay: Inhibition of CYP51 in Candida albicans SC5314 assessed as unknown sterol level at 4 ug/ml incubated for 16 hrs by GC-MS analysis (reference value: 5.35 %); parameters: scale not given: the % may be the effect or the level left; conditions: at 4 µg/mL
# T1 sequence (P10613 whole entry): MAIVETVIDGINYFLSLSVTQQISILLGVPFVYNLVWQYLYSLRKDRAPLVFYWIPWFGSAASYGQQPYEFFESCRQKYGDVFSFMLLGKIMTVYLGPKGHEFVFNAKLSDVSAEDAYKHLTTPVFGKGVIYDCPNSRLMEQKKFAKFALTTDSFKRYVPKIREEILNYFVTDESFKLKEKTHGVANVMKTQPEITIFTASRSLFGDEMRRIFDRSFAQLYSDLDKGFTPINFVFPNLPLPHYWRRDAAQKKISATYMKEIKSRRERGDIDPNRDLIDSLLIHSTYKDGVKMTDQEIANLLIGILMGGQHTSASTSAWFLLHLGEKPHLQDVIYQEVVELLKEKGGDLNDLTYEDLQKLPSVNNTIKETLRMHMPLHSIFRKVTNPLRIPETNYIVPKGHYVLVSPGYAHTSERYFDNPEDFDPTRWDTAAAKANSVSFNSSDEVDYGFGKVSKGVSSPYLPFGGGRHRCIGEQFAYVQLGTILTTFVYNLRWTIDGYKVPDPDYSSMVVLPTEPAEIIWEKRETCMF
# [19] = tested on: Candida albicans; assay: Induction of morphological changes in Candida albicans SC5314 assessed as necrotic cellular debris measured for 96 to 144 hrs by TEM analysis; format: functional, organism-based; conditions: time 96-144 hrs
# [20] = tested on: Candida albicans; assay: Induction of immunity in BALB/c mouse infected with Candida albicans 901 assessed as decrease in PD-L1 level at 0.5 ug/g administered 6 times measured after 4 days by Western blot analysis; format: functional, organism-based; conditions: dose 0.5 µg/g, time 4.0 day
# [21] = tested on: Candida albicans; assay: Induction of morphological changes in Candida albicans SC5314 assessed as disappearance of nuclear domains measured for 96 to 144 hrs by TEM analysis; format: functional, organism-based; conditions: time 96-144 hrs
# [22] = tested on: Candida albicans; assay: Induction of apoptosis in Candida albicans SC5314 assessed as increase in ROS level at 1 uM/ml incubated for 48 hrs by fluorescence microscopy; format: functional, organism-based
# [23] = tested on: Candida albicans; assay: Antifungal activity against Candida albicans 901 infected in BALB/c mouse assessed as restoration of infected tissue morphology at 0.5 ug/g administered 6 times measured after 4 days by H and E staining based analysis; format: functional, organism-based; conditions: dose 0.5 µg/g, time 4.0 day
# [24] = tested on: Candida albicans; assay: Induction of morphological changes in Candida albicans SC5314 assessed as reduction in cytoplasmic density measured for 96 to 144 hrs by TEM analysis; format: functional, organism-based; conditions: time 96-144 hrs
# [25] = tested on: Candida albicans; assay: Induction of immunity in BALB/c mouse infected with Candida albicans 901 assessed as decrease in PD-L1 level at 0.5 ug/g administered 6 times measured after 4 days by IHC analysis; format: functional, organism-based; conditions: dose 0.5 µg/g, time 4.0 day
# [26] = Drug uptake in Candida albicans SC5314 assessed as increase in green fluorescence by imaging analysis; format: ADME
# [27] = biological target: Programmed cell death 1 ligand 1 (Homo sapiens, UniProt Q9NZQ7); assay: Inhibition of human PD-L1 incubated for 15 mins by ELISA method
# Sequence of Programmed cell death 1 ligand 1 (Q9NZQ7 whole entry): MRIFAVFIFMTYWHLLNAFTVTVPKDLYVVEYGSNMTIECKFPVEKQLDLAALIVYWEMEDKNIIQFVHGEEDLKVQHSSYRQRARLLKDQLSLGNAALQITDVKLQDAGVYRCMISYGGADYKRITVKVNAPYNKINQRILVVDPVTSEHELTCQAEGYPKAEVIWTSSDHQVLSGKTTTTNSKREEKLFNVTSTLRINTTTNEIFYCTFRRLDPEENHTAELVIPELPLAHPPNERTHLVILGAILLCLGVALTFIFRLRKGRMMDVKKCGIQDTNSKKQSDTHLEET
# [28] = tested on: Candida albicans; assay: Antifungal activity against FLC-resistant Candida albicans 901 assessed as fungal growth inhibition incubated for 72 hrs by CLSI based susceptibility test; format: functional
# [29] = tested on: Candida albicans; assay: Antifungal activity against Candida albicans 901 infected in BALB/c mouse assessed as repair of tissue damage at 0.5 ug/g administered 6 times measured after 4 days by Masson staining based analysis; format: functional, organism-based; conditions: dose 0.5 µg/g, time 4.0 day
# [30] = Toxicity in BALB/c mouse infected with Candida albicans 901 assessed as pathological change in lung at 0.5 ug/g administered 6 times measured after 4 days by H and E staining based analysis; format: tissue-based; conditions: in vivo, 96 h, dose 0.5 µg/g, time 4 day
# [31] = tested on: Candida albicans; assay: Antifungal activity against FLC-resistant Candida albicans 904 assessed as fungal growth inhibition incubated for 72 hrs by CLSI based susceptibility test; format: functional
# [32] = tested on: Candida albicans; assay: Induction of morphological changes in Candida albicans SC5314 assessed as edematous vacuoles measured for 96 to 144 hrs by TEM analysis; format: functional, organism-based; conditions: time 96-144 hrs
# [33] = Toxicity in BALB/c mouse infected with Candida albicans 901 assessed as plasma AST level at 0.5 ug/g administered 6 times measured after 4 days (reference value: 50.6 +/- 2.3 IU/L); conditions: in vivo, 96 h, dose 0.5 µg/g, time 4 day
# [34] = Drug uptake in Candida albicans SC5314 assessed as increase in red fluorescence by PI staining based imaging analysis; format: ADME
# [35] = Toxicity in BALB/c mouse infected with Candida albicans 901 assessed as pathological change in spleen at 0.5 ug/g administered 6 times measured after 4 days by H and E staining based analysis; format: tissue-based; conditions: in vivo, 96 h, dose 0.5 µg/g, time 4 day
# [36] = biological target: T1, Lanosterol 14-alpha demethylase; assay: Inhibition of CYP51 in Candida albicans SC5314 assessed as ergosterol level at 4 ug/ml incubated for 16 hrs by GC-MS analysis (reference value: 92.07 %); parameters: scale not given: the % may be the effect or the level left; conditions: at 4 µg/mL
smiles,measurement,setting,value
COC(=O)[C@@H](Cn1cncn1)NCc1cccc(OCc2cccc(-c3ccccc3)c2C)c1,Activity,[1],Active
same,inhibition,[2],Active
same,Activity,[3],Active
same,Activity,[4],24.7 mmol/L
same,Activity,[5],Active
same,Activity,[6],Non-Toxic
same,inhibition,[7],Active
same,Activity,[8],Active
same,Activity,[9],25.91%
same,Activity,[10],34.74%
same,Activity,[11],21.5 IU/L
same,MIC50,[12],4 µg/mL
same,Activity,[13],Active
same,Activity,[14],Active
same,Activity,[15],Active
same,Activity,[16],Active
same,Activity,[17],Active
same,Activity,[18],6.65%
same,Activity,[19],Active
same,Activity,[20],Active
same,Activity,[21],Active
same,Activity,[22],Active
same,Activity,[23],Active
same,Activity,[24],Active
same,Activity,[25],Active
same,Drug uptake,[26],Active
same,IC50,[27],21 nM
same,MIC50,[28],2 µg/mL
same,Activity,[29],Active
same,Activity,[30],Non-Toxic
same,MIC50,[31],2 µg/mL
same,Activity,[32],Active
same,Activity,[33],57.4 IU/L
same,Drug uptake,[34],Active
same,Activity,[35],Non-Toxic
same,Activity,[36],9.72%
